# Experimental data: EP0670711B1, “ANTIFUNGAL MOUTHCARE COMPOSITIONS” (AMBI Inc., priority 1992, dated 1994)
# Where two headings read alike, the source gives them in different places.
# Key:
# Assay type in all cases: cell-based
# Bact. intermedius [1] = assay: nominal inhibitory concentration (NIC) assay; conditions: Prevotella intermedia, read-out: NIC
# Strep. sanguis [2] = assay: nominal inhibitory concentration (NIC) assay; conditions: read-out: NIC
# Strep.mutans [3] = assay: nominal inhibitory concentration (NIC) assay; conditions: Streptococcus mutans, read-out: NIC
# G.vaginalis [4] = assay: nominal inhibitory concentration (NIC) assay; conditions: Gardnerella vaginalis, read-out: NIC
# Act. odontolyticus [5] = assay: nominal inhibitory concentration (NIC) assay; conditions: Schaalia odontolytica, read-out: NIC
# Strep. agalactiæ [6] = assay: nominal inhibitory concentration (NIC) assay; conditions: read-out: NIC
# Strep.pyogenes [7] = assay: nominal inhibitory concentration (NIC) assay; conditions: Streptococcus pyogenes, read-out: NIC
# Act. naeslundii [8] = assay: nominal inhibitory concentration (NIC) assay; conditions: Actinomyces naeslundii, read-out: NIC
# Peptostrepto. micros [9] = assay: nominal inhibitory concentration (NIC) assay; conditions: read-out: NIC
# Strep. mitis [10] = assay: nominal inhibitory concentration (NIC) assay; conditions: Streptococcus mitis, read-out: NIC
# Candida kefyr [11] = assay: nominal inhibitory concentration (NIC) assay; conditions: Kluyveromyces marxianus, read-out: NIC
# Strep mitior [12] = assay: nominal inhibitory concentration (NIC) assay; conditions: read-out: NIC
# Lacto odontolyticus [13] = assay: nominal inhibitory concentration (NIC) assay; conditions: read-out: NIC
# S mutans NCTC 11061 = assay: zone diffusion assay; conditions: solution with 500ppm of each agent
# Source text: (§1) The assay was repeated for each of cetyl pyridinium chloride, chlorhexidine or triclosan individually. […]
# W recta NCTC 11489 = assay: zone diffusion assay; conditions: solution with 500ppm of each agent
# Source text: as §1
# C tropicalis NCTC 3114 = assay: zone diffusion assay; conditions: solution with 500ppm of each agent
# Source text: as §1
# S sanguis NCTC 10904 = assay: zone diffusion assay; conditions: solution with 500ppm of each agent
# Source text: as §1
# A actinomyces NCTC 9709 = assay: zone diffusion assay; conditions: solution with 500ppm of each agent
# Source text: as §1
# F nucleatum NCTC 10562 = assay: zone diffusion assay; conditions: solution with 500ppm of each agent
# Source text: as §1
# C albicans NCTC 3089 = assay: zone diffusion assay; conditions: solution with 500ppm of each agent
# Source text: as §1
# C kefyr NCTC 3106 = assay: zone diffusion assay; conditions: solution with 500ppm of each agent
# Source text: as §1
# Fuso. nucleatum [14] = assay: nominal inhibitory concentration (NIC) assay; conditions: Fusobacterium nucleatum, read-out: NIC
# Bact. ureolyticus [15] = assay: nominal inhibitory concentration (NIC) assay; conditions: read-out: NIC
# Porph. gingivalis [16] = assay: nominal inhibitory concentration (NIC) assay; conditions: Porphyromonas gingivalis, read-out: NIC
# Candida albicans [17] = assay: nominal inhibitory concentration (NIC) assay; conditions: read-out: NIC
# Act. israelii [18] = assay: nominal inhibitory concentration (NIC) assay; conditions: Actinomyces israelii, read-out: NIC
# Candida tropicalis [19] = assay: nominal inhibitory concentration (NIC) assay; conditions: read-out: NIC
# Strep. milleri [20] = assay: nominal inhibitory concentration (NIC) assay; conditions: read-out: NIC
# [21] = system: all the organisms shown in the Example 25 Table 1; assay: NIC assay, summary over all organisms of Table 1; conditions: read-out: levels needed to inhibit all the desired oral microrganisms
# Act. actinomycetem [22] = assay: nominal inhibitory concentration (NIC) assay; conditions: read-out: NIC
# Staph.aureus [23] = assay: nominal inhibitory concentration (NIC) assay; conditions: Staphylococcus aureus, read-out: NIC
# Candida organisms [24] = assay: NIC assay, summary for Candida; conditions: for MIC: read-out: levels for Candida inhibition; for inhibitory activity against candida species: result in words, NIC assay
# Strep. salivarius [25] = assay: nominal inhibitory concentration (NIC) assay; conditions: Streptococcus salivarius, read-out: NIC
# Bact. ureolyticus [26] = assay: nominal inhibitory concentration (NIC) assay
# Peptostrepto. micros [27] = assay: nominal inhibitory concentration (NIC) assay
# Act. actinomycetem [28] = assay: nominal inhibitory concentration (NIC) assay
# Candida kefyr [29] = assay: nominal inhibitory concentration (NIC) assay
# Strep.mutans [30] = assay: nominal inhibitory concentration (NIC) assay
# Fuso. nucleatum [31] = assay: nominal inhibitory concentration (NIC) assay
# Porph. gingivalis [32] = assay: nominal inhibitory concentration (NIC) assay
# Act. naeslundii [33] = assay: nominal inhibitory concentration (NIC) assay
# Strep. salivarius [34] = assay: nominal inhibitory concentration (NIC) assay
# Strep mitior [35] = assay: nominal inhibitory concentration (NIC) assay
# Staph.aureus [36] = assay: nominal inhibitory concentration (NIC) assay
# Candida albicans [37] = assay: nominal inhibitory concentration (NIC) assay
# Strep. agalactiæ [38] = assay: nominal inhibitory concentration (NIC) assay
# Strep. sanguis [39] = assay: nominal inhibitory concentration (NIC) assay
# Bact. intermedius [40] = assay: nominal inhibitory concentration (NIC) assay
# [41] = system: all the organisms shown in the Example 25 Table 1; assay: NIC assay, summary over all organisms of Table 1; conditions: all organisms of Example 25 Table 1 (for CPC: kills all the organisms)
# Source text: (§2) Thus, lower levels of such antimicrobial agent may be used in the present invention if it intended that such antimicrobial agent is being included principally to provide anti-Candida activity, to supplement the gap in the spectrum of activity of nisin.
# G.vaginalis [42] = assay: nominal inhibitory concentration (NIC) assay
# Act. israelii [43] = assay: nominal inhibitory concentration (NIC) assay
# Strep. milleri [44] = assay: nominal inhibitory concentration (NIC) assay
# Candida organisms [45] = assay: NIC assay, summary for Candida; conditions: result in words
# Source text: as §2
# Strep.pyogenes [46] = assay: nominal inhibitory concentration (NIC) assay
# Lacto odontolyticus [47] = assay: nominal inhibitory concentration (NIC) assay
# Strep. mitis [48] = assay: nominal inhibitory concentration (NIC) assay
# Candida tropicalis [49] = assay: nominal inhibitory concentration (NIC) assay
# Act. odontolyticus [50] = assay: nominal inhibitory concentration (NIC) assay
molecule,measurement,setting,value
"Oc1cc(Cl)ccc1Oc1ccc(Cl)cc1Cl [TCN, triclosan]",MIC,Bact. intermedius [1],3.72 µg/mL
same,MIC,Strep. sanguis [2],0.88 µg/mL
same,MIC,Strep.mutans [3],1.11 µg/mL
same,MIC,G.vaginalis [4],0.41 µg/mL
same,MIC,Act. odontolyticus [5],3.02 µg/mL
same,MIC,Strep. agalactiæ [6],4.96 µg/mL
same,MIC,Strep.pyogenes [7],4.35 µg/mL
same,MIC,Act. naeslundii [8],1.98 µg/mL
same,MIC,Peptostrepto. micros [9],6.76 µg/mL
same,MIC,Strep. mitis [10],3.94 µg/mL
same,MIC,Candida kefyr [11],0.46 µg/mL
same,MIC,Strep mitior [12],4.23 µg/mL
same,MIC,Lacto odontolyticus [13],7.49 µg/mL
same,mean zones,S mutans NCTC 11061,32.82 mm
same,mean zones,W recta NCTC 11489,37.20 mm
same,mean zones,C tropicalis NCTC 3114,13.66 mm
same,mean zones,S sanguis NCTC 10904,28.97 mm
same,mean zones,A actinomyces NCTC 9709,35.92 mm
same,mean zones,F nucleatum NCTC 10562,33.98 mm
same,mean zones,C albicans NCTC 3089,16.99 mm
same,mean zones,C kefyr NCTC 3106,21.99 mm
same,MIC,Fuso. nucleatum [14],1.6 µg/mL
same,MIC,Bact. ureolyticus [15],7.65 µg/mL
same,MIC,Porph. gingivalis [16],4 µg/mL
same,MIC,Candida albicans [17],1 µg/mL
same,MIC,Act. israelii [18],3.19 µg/mL
same,MIC,Candida tropicalis [19],0.35 µg/mL
same,MIC,Strep. milleri [20],1.08 µg/mL
same,MIC,[21],~7.65 µg/mL
same,MIC,Act. actinomycetem [22],1.69 µg/mL
same,MIC,Staph.aureus [23],0.09 µg/mL
same,MIC,Candida organisms [24]; Candida,~1 µg/mL
same,inhibitory activity against candida species,Candida organisms [24],effective
same,MIC,Strep. salivarius [25],4.05 µg/mL
"[H]/N=C(\N/C(=N/[H])NCCCCCCNC(=N)NC(=N)Nc1ccc(Cl)cc1)Nc1ccc(Cl)cc1 [CHX, chlorhexidine]",MIC,Bact. intermedius [1]; Bact. intermedius,2.49 µg/mL
same,MIC,Strep. sanguis [2]; Strep. sanguis,0.86 µg/mL
same,MIC,Strep.mutans [3]; Strep.mutans,3.94 µg/mL
same,MIC,G.vaginalis [4]; G.vaginalis,1.3 µg/mL
same,MIC,Act. odontolyticus [5]; Act. odontolyticus,3.37 µg/mL
same,MIC,Strep. agalactiæ [6]; Strep. agalactiæ,0.41 µg/mL
same,MIC,Strep.pyogenes [7]; Strep.pyogenes,0.16 µg/mL
same,MIC,Act. naeslundii [8]; Act. naeslundii,2.01 µg/mL
same,MIC,Peptostrepto. micros [9]; Peptostrepto. micros,8.46 µg/mL
same,MIC,Strep. mitis [10]; Strep. mitis,1.5 µg/mL
same,MIC,Candida kefyr [11]; Candida kefyr,0.42 µg/mL
same,MIC,Strep mitior [12]; Strep mitior,4.55 µg/mL
same,MIC,Lacto odontolyticus [13]; Lacto odontolyticus,1.88 µg/mL
same,mean zones,S mutans NCTC 11061,29.68 mm
same,mean zones,W recta NCTC 11489,32.35 mm
same,mean zones,C tropicalis NCTC 3114,17.36 mm
same,mean zones,S sanguis NCTC 10904,22.76 mm
same,mean zones,A actinomyces NCTC 9709,35.68 mm
same,mean zones,F nucleatum NCTC 10562,36.97 mm
same,mean zones,C albicans NCTC 3089,14.93 mm
same,mean zones,C kefyr NCTC 3106,17.03 mm
same,MIC,Fuso. nucleatum [14]; Fuso. nucleatum,0.64 µg/mL
same,MIC,Bact. ureolyticus [15]; Bact. ureolyticus,0.69 µg/mL
same,MIC,Porph. gingivalis [16]; Porph. gingivalis,2.36 µg/mL
same,MIC,Candida albicans [17],1.71 µg/mL
same,MIC,Act. israelii [18]; Act. israelii,4.11 µg/mL
same,MIC,Candida tropicalis [19],0.98 µg/mL
same,MIC,Strep. milleri [20]; Strep. milleri,1.58 µg/mL
same,MIC,[21],~8.46 µg/mL
same,MIC,Act. actinomycetem [22]; Act. actinomycetem,0.53 µg/mL
same,MIC,Staph.aureus [23]; Staph.aureus,0.54 µg/mL
same,MIC,Candida organisms [24]; Candida organisms,1.71 µg/mL
same,inhibitory activity against candida species,Candida organisms [24],effective
same,MIC,Strep. salivarius [25]; Strep. salivarius,1.44 µg/mL
nisin [Ambicin N],NIC,Bact. ureolyticus [26],0.035 ppm
same,NIC,Peptostrepto. micros [27],>1.28 ppm
same,NIC,Act. actinomycetem [28],0.02 ppm
same,NIC,Candida kefyr [29],>128 ppm
same,NIC,Strep.mutans [30],0.43 ppm
same,NIC,Fuso. nucleatum [31],0.048 ppm
same,NIC,Porph. gingivalis [32],>1.28 ppm
same,NIC,Act. naeslundii [33],>12.8 ppm
same,NIC,Strep. salivarius [34],0.18 ppm
same,NIC,Strep mitior [35],0.05 ppm
same,NIC,Staph.aureus [36],0.13 ppm
same,NIC,Candida albicans [37],>128 ppm
same,NIC,Strep. agalactiæ [38],0.22 ppm
same,NIC,Strep. sanguis [39],0.23 ppm
same,NIC,Bact. intermedius [40],0.91 ppm
same,levels needed to inhibit all the desired oral microrganisms,[41],about 0.99 ppm
same,mean zones,S mutans NCTC 11061,18.36 mm
same,mean zones,W recta NCTC 11489,28.19 mm
same,mean zones,C tropicalis NCTC 3114,0 mm
same,mean zones,S sanguis NCTC 10904,15.38 mm
same,mean zones,A actinomyces NCTC 9709,23.04 mm
same,mean zones,F nucleatum NCTC 10562,29.38 mm
same,mean zones,C albicans NCTC 3089,0 mm
same,mean zones,C kefyr NCTC 3106,0 mm
same,NIC,G.vaginalis [42],0.22 ppm
same,NIC,Act. israelii [43],0.53 ppm
same,NIC,Strep. milleri [44],0.14 ppm
same,inhibitory activity against candida species,Candida organisms [45],lacks effective inhibitory activity
same,NIC,Strep.pyogenes [46],0.009 ppm
same,NIC,Lacto odontolyticus [47],0.02 ppm
same,NIC,Strep. mitis [48],0.33 ppm
same,NIC,Candida tropicalis [49],>128 ppm
same,NIC,Act. odontolyticus [50],0.12 ppm
"CCCCCCCCCCCCCCCC[n+]1ccccc1 [CPC, cetyl pyridinium chloride]",MIC,Bact. intermedius [1],4.68 µg/mL
same,MIC,Strep. sanguis [2],2.12 µg/mL
same,MIC,Strep.mutans [3],3.1 µg/mL
same,MIC,G.vaginalis [4],0.3 µg/mL
same,MIC,Act. odontolyticus [5],1.23 µg/mL
same,MIC,Strep. agalactiæ [6],0.78 µg/mL
same,MIC,Strep.pyogenes [7],0.78 µg/mL
same,MIC,Act. naeslundii [8],4.61 µg/mL
same,MIC,Peptostrepto. micros [9],4.96 µg/mL
same,MIC,Strep. mitis [10],2.23 µg/mL
same,MIC,Candida kefyr [11],0.61 µg/mL
same,MIC,Strep mitior [12],1.22 µg/mL
same,MIC,Lacto odontolyticus [13],0.83 µg/mL
same,mean zones,S mutans NCTC 11061,17.05 mm
same,mean zones,W recta NCTC 11489,17.15 mm
same,mean zones,C tropicalis NCTC 3114,10.39 mm
same,mean zones,S sanguis NCTC 10904,14.44 mm
same,mean zones,A actinomyces NCTC 9709,19.41 mm
same,mean zones,F nucleatum NCTC 10562,18.99 mm
same,mean zones,C albicans NCTC 3089,9.79 mm
same,mean zones,C kefyr NCTC 3106,10.43 mm
same,MIC,Fuso. nucleatum [14],0.82 µg/mL
same,MIC,Bact. ureolyticus [15],0.56 µg/mL
same,MIC,Porph. gingivalis [16],0.94 µg/mL
same,MIC,Candida tropicalis [19],0.48 µg/mL
same,MIC,Strep. milleri [20],4.58 µg/mL
same,MIC,Act. actinomycetem [22],1.02 µg/mL
same,MIC,Staph.aureus [23],0.66 µg/mL
same,MIC,Strep. salivarius [25],2.36 µg/mL
